Where two headings read alike, the source gives them in different places.
Key:
[1] = tested on: cleavage between NS4B and NS5; assay: NS4B-NS5 polyprotein processing; type: cell-based, Zika virus; settings: HEK-293T
ZIKV DAK-41525-MA = assay: CPE-protection assay, ZIKV DAK-41525-MA; type: cell-based, Zika virus; settings: Zika virus
ZIKV viral E protein = assay: Viral E protein expression by fluorescence microscopy (4G2 antibody); type: cell-based, Zika virus; settings: ZIKV-infected Vero76, 2 days post infection
ZIKV-RLuc NS4B A245T = type: cell-based, Zika virus
ZIKV = assay: Combination treatment and synergy scoring, CPE-based anti-ZIKV assay; type: cell-based; settings: Zika virus; single agent, Fig 6A; read-out: EC50 as a single agent in the dose-response anti-ZIKV assay
WNV NY-99 = assay: CPE-protection assay, WNV; type: cell-based, West Nile virus; settings: West Nile virus
ZIKV-RLuc NS4B V248G = type: cell-based, Zika virus
JEV SA-14 = assay: CPE-protection assay, JEV; type: cell-based, Japanese encephalitis virus; settings: Japanese encephalitis virus
DENV Type 4 H241 = assay: microbe, parasite or virus in culture; type: cell-based; settings: Dengue virus, read-out: EC50 DENV Type 4 H241
CHIKV = assay: microbe, parasite or virus in culture; type: cell-based; settings: Chikungunya virus, Vero 76, read-out: EC50-CPE CHIKV
ZIKV-RLuc NS4B V241L = type: cell-based, Zika virus
ZIKV-RLuc = assay: microbe, parasite or virus in culture; type: cell-based, Zika virus; settings: wild type ZIKV-RLuc, Vero 76, MOI 0.1, three days, read-out: EC50 ZIKV-RLuc
ZIKV PLCal [2] = assay: CPE-based anti-ZIKV concentration-response assay (96-well); type: cell-based, Zika virus; settings: Zika virus, 72 h; Vero 76, MOI 0.05, 3-day incubation, CellTiter-Glo; read-out: EC50-CPE ZIKV-PLCal
ZIKV PLCal [3] = assay: Virus yield (titer) reduction assay in Vero 76 cells; type: cell-based, Zika virus; settings: 5 µM, Vero 76, 0.05 m.o.i., two days
ZIKV Ib H30656 = assay: microbe, parasite or virus in culture; type: cell-based; settings: Zika virus; CPE-protection
YFV 17D = assay: microbe, parasite or virus in culture; type: cell-based; settings: Yellow fever virus; CPE-protection
Vero76 = settings: African green monkey
ZIKV-RLuc NS4B mutants = type: cell-based, Zika virus
ZIKV PLCal [4] = assay: Virus yield (titer) reduction assay in Huh 7.5.1 cells; type: cell-based, Zika virus; settings: 1 µM
ZIKV MR766 = assay: microbe, parasite or virus in culture; type: cell-based; settings: Zika virus; CPE-protection
in vitro = settings: African green monkey, CC50 Vero76
ZIKV PRVABC59 = assay: microbe, parasite or virus in culture; type: cell-based; settings: Zika virus; CPE-protection
NS3-NS4B interaction = NS3-NS4B interaction (Zika virus, UniProt A0A142I5B9); type: cell-based
IFN-α/β induction = assay: Interferon response measurement in ZIKV-infected Huh 7.5.1 cells; type: cell-based; settings: Huh 7.5.1, ZIKV MOI 3, 24 h.p.i.
Method: Huh 7.5.1. cells were infected with ZIKV with/without test compound treatment, and the supernatants were harvested at 24 h.p.i. and tested for interferon- α/β (IFN- α/β) following the manufacturer’s protocol. HEK-Blue IFN-α/β cells (5000 cells/well) were incubated in 96-well plates with 20 µL of test samples for overnight. The following day, 20 µL of the cell supernatant from the HEK-Blue IFN-α/β cells were further incubated with 180 µL of pre-warmed Quanti-blue SEAP reagent (Invivogen) for 2 hours and the O.D. A620 was measured using a Cytation 1 (Agilent). As a positive and negative control, recombinant human IFN-α2b (InvivoGen, 30 pg/ml) and conditioned media from mock-infected Huh 7.5.1. were used.

ZIKV FLR = assay: microbe, parasite or virus in culture; type: cell-based; settings: Zika virus; CPE-protection

With CC(C)(C)c1ccc(C(=O)NC2CCCC2)cc1 [MWAC-3475] the “effect on cleavage between NS4B and NS5” value [1] was “no such effect was detected”, the EC50 (ZIKV DAK-41525-MA) was 1540 ± 270 nM and the “intensity and abundance of viral E protein (4G2 antibody)” value (ZIKV viral E protein) was “decreased in a concentration-dependent manner”. The EC50 (ZIKV-RLuc NS4B A245T) was 2290 nM, the “Fold-increase / fold-change of EC50, NS4B A245T vs wild type” value (ZIKV-RLuc NS4B A245T) was 5.91 and the EC50 (ZIKV) was 616 nM. For the same compound, the EC50 (WNV NY-99) was over 50000 nM, the EC50 (ZIKV-RLuc NS4B V248G) was 5120 nM and the “Fold-increase / fold-change of EC50, NS4B V248G vs wild type” value (ZIKV-RLuc NS4B V248G) was 13.20. The EC50 (JEV SA-14) was over 50000 nM, the EC50 (DENV Type 4 H241) was over 50000 nM and the EC50 (CHIKV) was over 50000 nM. The EC50 (ZIKV-RLuc NS4B V241L) was 21400 nM, the “Fold-increase / fold-change of EC50, NS4B V241L vs wild type” value (ZIKV-RLuc NS4B V241L) was 55.24 and the EC50 (ZIKV-RLuc; Zika virus, Vero 76, 72 h) was 390 nM. The EC50 (ZIKV-RLuc) was 340 ± 280 nM, the EC50 (ZIKV PLCal [2]) was 630 ± 650 nM and the “reduction in progeny virus titers” value (ZIKV PLCal [3]) was over 1000 fold. For the same compound, the EC50 (ZIKV Ib H30656) was 1010 ± 210 nM, the EC50 (YFV 17D) was over 50000 nM and the CC50 (Vero76) was 28100 ± 6500 nM. For the same compound, the “fold decrease in potency by NS4B mutations” value (ZIKV-RLuc NS4B mutants) was 6- to 55 fold, the “VYR: Virus Yield reduction (Log 10)” value (ZIKV PLCal [4]) was -0.36 ± 0.07 Log 10 and the EC50 (ZIKV MR766) was 5930 ± 1260 nM. For the same compound, the CC50 (in vitro) was 28000 nM, the EC50 (ZIKV PRVABC59) was 910 ± 200 nM and the “disruption of NS3-NS4B interaction” value (NS3-NS4B interaction) was “did not inhibit either of these steps”. For the same compound, the “induction of interferon in the infected cells” value (IFN-α/β induction) was “did not inhibit either of these steps” and the EC50 (ZIKV FLR) was 1130 ± 110 nM.
